From patent US20250197407A1 (Jazz Pharmaceuticals Ireland Limited, priority 2022, published 2025)

Biological target: SOS1/KRAS WT (Homo sapiens (Human), UniProt Q07889)
Test: SOS1/KRAS WT HTRF binding assay (FRET-based protein-protein interaction)
Conditions: inhibition of His6-SOS1 (aa564-1049, 40 nM) binding to GST-KRAS-WT (aa1-188, 40 nM); at least two independent replicates; read-out: SOS1/KRAS WT HTRF Binding assay pIC50 (converted)
Procedure, shortened: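 Time-resolved FRET at 665 nm, read 4 hr after adding anti-GST-Eu(K) (4 nM) and anti-6His-XL665 (20 nM), tracked SOS1(aa564-1049)–KRAS WT(aa1-188) association. Both proteins were at 40 nM, pre-incubated 60 min at room temperature with compound. Max/min signals came from 0.05% DMSO and 10 μM reference, with four-parameter logistic IC50.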

Sequence of SOS1/KRAS WT (Q07889 564-1049): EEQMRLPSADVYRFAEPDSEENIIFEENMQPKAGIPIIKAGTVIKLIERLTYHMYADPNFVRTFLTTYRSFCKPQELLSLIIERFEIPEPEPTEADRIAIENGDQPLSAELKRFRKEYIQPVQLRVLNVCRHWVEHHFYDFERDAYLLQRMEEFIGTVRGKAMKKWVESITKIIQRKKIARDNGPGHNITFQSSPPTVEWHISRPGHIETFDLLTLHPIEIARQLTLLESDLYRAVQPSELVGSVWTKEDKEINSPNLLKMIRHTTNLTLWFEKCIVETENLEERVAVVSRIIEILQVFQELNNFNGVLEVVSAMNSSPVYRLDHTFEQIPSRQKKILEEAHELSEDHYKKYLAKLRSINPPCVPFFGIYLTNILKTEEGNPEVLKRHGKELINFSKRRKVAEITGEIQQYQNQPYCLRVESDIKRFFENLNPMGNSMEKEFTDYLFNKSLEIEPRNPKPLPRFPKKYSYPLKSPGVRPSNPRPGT

Row | IC50 [nM] | Structure (SMILES)
1 | 10 | CCOC1(C)C(=O)N(C)c2cc3c(N[C@H](C)c4cccc(C(F)(F)CO)c4F)nnc(C)c3cc21 (stereo partly drawn) [Compound 135, 3-ethoxy-1,3,5-trimethyl-8-[[(1R)-1-[3-(1,1-difluoro-2-hydroxy-ethyl)-2-fluoro-phenyl]ethyl]amino]pyrrolo[2,3-g]phthalazin-2-one]
2 | 14.1 | COCC1(C)C(=O)N(C2CC2)c2cc3c(N[C@H](C)c4cccc(C(F)(F)C(C)(C)O)c4F)nnc(C)c3cc21 (stereo partly drawn) [Compound 136, 1-cyclopropyl-8-[[(1R)-1-[3-(1,1-difluoro-2-hydroxy-2-methyl-propyl)-2-fluoro-phenyl]ethyl]amino]-3-(methoxymethyl)-3,5-dimethyl-pyrrolo[3,2-g]phthalazin-2-one]
3 | 15.8 | COCC1(C)C(=O)N(C2CC2)c2cc3c(N[C@H](C)c4cccc(C(F)(F)C(C)(C)O)c4C)nnc(C)c3cc21 (stereo partly drawn) [Compound 137, 1-cyclopropyl-8-[[(1R)-1-[3-(1,1-difluoro-2-hydroxy-2-methyl-propyl)-2-methyl-phenyl]ethyl]amino]-3-(methoxymethyl)-3,5-dimethyl-pyrrolo[3,2-g]phthalazin-2-one]
4 | 6.61 | COCC1(C)C(=O)N(C2CC2)c2cc3c(N[C@H](C)c4cccc(C(F)(F)CO)c4F)nnc(C)c3cc21 (stereo partly drawn) [Compound 138, 1-cyclopropyl-8-[[(1R)-1-[3-(1,1-difluoro-2-hydroxy-ethyl)-2-fluoro-phenyl]ethyl]amino]-3-(methoxymethyl)-3,5-dimethyl-pyrrolo[3,2-g]phthalazin-2-one]
5 | 11 | COC1(C)C(=O)N(C2CC2)c2cc3c(N[C@H](C)c4cccc(C(F)(F)C(C)(C)O)c4F)nnc(C)c3cc21 (stereo partly drawn) [Compound 139, 1-cyclopropyl-3-methoxy-3,5-dimethyl-8-[[(1R)-1-[3-(1,1-difluoro-2-hydroxy-2-methyl-propyl)-2-fluoro-phenyl]ethyl]amino]pyrrolo[2,3-g]phthalazin-2-one]
6 | 15.5 | COC1(C)C(=O)N(C2CC2)c2cc3c(N[C@H](C)c4cccc(C(F)(F)C(C)(C)O)c4C)nnc(C)c3cc21 (stereo partly drawn) [Compound 140, 1-cyclopropyl-3-methoxy-3,5-dimethyl-8-[[(1R)-1-[3-(1,1-difluoro-2-hydroxy-2-methyl-propyl)-2-methyl-phenyl]ethyl]amino]pyrrolo[2,3-g]phthalazin-2-one]
7 | 20 | COC1(C)C(=O)N(C)c2cc3c(N[C@H](C)c4cc(F)cc(C(F)(F)CO)c4F)nnc(C)c3cc21 (stereo partly drawn) [Compound 141, 3-methoxy-1,3,5-trimethyl-8-[[(1R)-1-[3-(1,1-difluoro-2-hydroxy-ethyl)-2,5-difluoro-phenyl]ethyl]amino]pyrrolo[2,3-g]phthalazin-2-one]
8 | 12.9 | COC1(C)C(=O)N(C2CC2)c2cc3c(N[C@H](C)c4cccc(C(F)(F)CO)c4)nnc(C)c3cc21 (stereo partly drawn) [Compound 142, 1-cyclopropyl-3-methoxy-3,5-dimethyl-8-[[(1R)-1-[3-(1,1-difluoro-2-hydroxy-ethyl)phenyl]ethyl]amino]pyrrolo [2,3-g]phthalazin-2-one]
9 | 11 | COC1(C)C(=O)N(C2CC2)c2cc3c(N[C@H](C)c4cccc(C(F)(F)CO)c4C)nnc(C)c3cc21 (stereo partly drawn) [Compound 143, 1-cyclopropyl-3-methoxy-3,5-dimethyl-8-[[(1R)-1-[3-(1,1-difluoro-2-hydroxy-ethyl)-2-methyl-phenyl]ethyl]amino]pyrrolo[2,3-g]phthalazin-2-one]
10 | 11.7 | Cc1nnc(N[C@H](C)c2cccc(C(F)(F)F)c2)c2cc3c(cc12)n(C)c(=O)n3C1CCOC1 (stereo partly drawn) [Compound 144, 1,8-dimethyl-3-tetrahydrofuran-3-yl-5-[[(1R)-1-[3-(trifluoromethyl)phenyl]ethyl]amino]imidazo[4,5-g]phthalazin-2-one]
11 | 66.1 | Cc1nnc(N[C@H](C)c2cccc(C(F)(F)F)c2)c2cc3[nH]c(=O)n(C)c3cc12 [Compound 145, 1,8-dimethyl-5-[[(1R)-1-[3-(trifluoromethyl)phenyl]ethyl]amino]-3H-imidazo[4,5-g]phthalazin-2-one]
12 | 12.3 | Cc1nnc(N[C@H](C)c2cccc(C(F)F)c2F)c2cc3c(cc12)n(C)c(=O)n3[C@H]1CCOC1 [Compound 146, 5-[[(1R)-1-[3-(difluoromethyl)-2-fluoro-phenyl]ethyl]amino]-1,8-dimethyl-3-[(3S)-tetrahydrofuran-3-yl]imidazo[4,5-g]phthalazin-2-one]
13 | 12.3 | Cc1nnc(N[C@H](C)c2cccc(C(F)F)c2F)c2cc3c(cc12)n(C)c(=O)n3C1COC1 [Compound 147, 5-[[(1R)-1-[3-(difluoromethyl)-2-fluoro-phenyl]ethyl]amino]-1,8-dimethyl-3-(oxetan-3-yl)imidazo[4,5-g]phthalazin-2-one]
14 | 21.4 | Cc1nnc(N[C@H](C)c2cccc(C(F)(F)F)c2)c2cc3c(cc12)n(C)c(=O)n3CC#N [Compound 148, 2-[1,8-dimethyl-2-oxo-5-[[(1R)-1-[3-(trifluoromethyl)phenyl]ethyl]amino]imidazo[4,5-g]phthalazin-3-yl]acetonitrile]
15 | 10.2 | Cc1nnc(N[C@H](C)c2cccc(C(F)(F)F)c2)c2cc3c(cc12)n(C)c(=O)n3C(C)C#N (stereo partly drawn) [Compound 149, 2-[1,8-dimethyl-2-oxo-5-[[(1R)-1-[3-(trifluoromethyl)phenyl]ethyl]amino]imidazo[4,5-g]phthalazin-3-yl]propanenitrile]
16 | 8.91 | Cc1c(-c2ccnn2C)cccc1[C@@H](C)Nc1nnc(C)c2cc3c(cc12)n(C)c(=O)n3C [Compound 150, 1,3,8-trimethyl-5-[[(1R)-1-[2-methyl-3-(2-methylpyrazol-3-yl)phenyl]ethyl]amino]imidazo[4,5-g]phthalazin-2-one]
17 | 11 | Cc1c(-c2ccn(C)n2)cccc1[C@@H](C)Nc1nnc(C)c2cc3c(cc12)n(C)c(=O)n3C [Compound 151, 1,3,8-trimethyl-5-[[(1R)-1-[2-methyl-3-(1-methylpyrazol-3-yl)phenyl]ethyl]amino]imidazo[4,5-g]phthalazin-2-one]
18 | 85.1 | Cc1c(-c2cc(C(F)(F)F)nn2C)cccc1[C@@H](C)Nc1nnc(C)c2cc3c(cc12)n(C)c(=O)n3C [Compound 152, 1,3,8-trimethyl-5-[[(1R)-1-[2-methyl-3-[2-methyl-5-(trifluoromethyl)pyrazol-3-yl]phenyl]ethyl]amino]imidazo[4,5-g]phthalazin-2-one]
19 | 107 | Cc1c(-c2cncnc2)cccc1[C@@H](C)Nc1nnc(C)c2cc3c(cc12)n(C)c(=O)n3C [Compound 153, 1,3,8-trimethyl-5-[[(1R)-1-(2-methyl-3-pyrimidin-5-yl-phenyl)ethyl]amino]imidazo[4,5-g]phthalazin-2-one]
20 | 15.8 | Cc1c(C2CC2)cccc1[C@@H](C)Nc1nnc(C)c2cc3c(cc12)n(C)c(=O)n3C [Compound 154, 1,3,8-trimethyl-5-[[(1R)-1-(3-cyclopropyl-2-methyl-phenyl)ethyl]amino]imidazo[4,5-g]phthalazin-2-one]
21 | 30.9 | Cc1c(-c2ccn[nH]2)cccc1[C@@H](C)Nc1nnc(C)c2cc3c(cc12)n(C)c(=O)n3C [Compound 155, 1,3,8-trimethyl-5-[[(1R)-1-[2-methyl-3-(1H-pyrazol-5-yl)phenyl]ethyl]amino]imidazo[4,5-g]phthalazin-2-one]
22 | 89.1 | Cc1cc(-c2cccc([C@@H](C)Nc3nnc(C)c4cc5c(cc34)n(C)c(=O)n5C)c2C)n(C)n1 [Compound 156, 1,3,8-trimethyl-5-[[(1R)-1-[3-(2,5-dimethylpyrazol-3-yl)-2-methyl-phenyl]ethyl]amino]imidazo[4,5-g]phthalazin-2-one]
23 | 204 | Cc1c(C2=CCOCC2)cccc1[C@@H](C)Nc1nnc(C)c2cc3c(cc12)n(C)c(=O)n3C [Compound 157, 5-[[(1R)-1-[3-(3,6-dihydro-2H-pyran-4-yl)-2-methyl-phenyl]ethyl]amino]-1,3,8-trimethyl-imidazo[4,5-g]phthalazin-2-one]
24 | 120 | Cc1c(C2=CCNC2)cccc1[C@@H](C)Nc1nnc(C)c2cc3c(cc12)n(C)c(=O)n3C [Compound 158, 1,3,8-trimethyl-5-[[(1R)-1-[3-(2,5-dihydro-1H-pyrrol-3-yl)-2-methyl-phenyl]ethyl]amino]imidazo[4,5-g]phthalazin-2-one]
25 | 17.8 | Cc1c(-c2cncs2)cccc1[C@@H](C)Nc1nnc(C)c2cc3c(cc12)n(C)c(=O)n3C [Compound 159, 1,3,8-trimethyl-5-[[(1R)-1-(2-methyl-3-thiazol-5-yl-phenyl)ethyl]amino]imidazo[4,5-g]phthalazin-2-one]
26 | 269 | Cc1c(C2CCOCC2)cccc1[C@@H](C)Nc1nnc(C)c2cc3c(cc12)n(C)c(=O)n3C [Compound 160, 1,3,8-trimethyl-5-[[(1R)-1-(2-methyl-3-tetrahydropyran-4-yl-phenyl)ethyl]amino]imidazo[4,5-g]phthalazin-2-one]
27 | 589 | Cc1c(C2CCNC2)cccc1[C@@H](C)Nc1nnc(C)c2cc3c(cc12)n(C)c(=O)n3C (stereo partly drawn) [Compound 161, 1,3,8-trimethyl-5-[[(1R)-1-(2-methyl-3-pyrrolidin-3-yl-phenyl)ethyl]amino]imidazo[4,5-g]phthalazin-2-one]
28 | 9.12 | CCOC1(C)C(=O)N(C2CC2)c2cc3c(N[C@H](C)c4cccc(C(F)(F)CO)c4)nnc(C)c3cc21 (stereo partly drawn) [Compound 162, 1-cyclopropyl-8-[[(1R)-1-[3-(1,1-difluoro-2-hydroxy-ethyl)phenyl]ethyl]amino]-3-ethoxy-3,5-dimethyl-pyrrolo[3,2-g]phthalazin-2-one]
29 | 10.7 | CCOC1(C)C(=O)N(C2CC2)c2cc3c(N[C@H](C)c4cccc(C(F)(F)C(C)(C)O)c4F)nnc(C)c3cc21 (stereo partly drawn) [Compound 163, 1-cyclopropyl-3-ethoxy-3,5-dimethyl-8-[[(1R)-1-[3-(1,1-difluoro-2-hydroxy-2-methyl-propyl)-2-fluoro-phenyl]ethyl]amino]pyrrolo[2,3-g]phthalazin-2-one]
